Where “and” joins values, the source holds several entries; their conditions need not be identical. Identical values can stand only once. Entries after “also recorded” stand apart in the source; their conditions may differ. Like-named read-outs stand apart in the source and are kept apart here.
What was measured:
[1] = molecular target: T1, human erythrocyte acetylcholinesterase (AChE) (Homo sapiens, UniProt P22303); assay: Kinetic parameters and type of AChE inhibition (Hanes–Woolf); format: biochemical; settings: for Vmax(i) AChE: mean ± SD; for vmax AChE, individual experiments B1–B3: inhibitor at 1/3 of IC50; for vmax AChE, individual experiments C1–C3: inhibitor at IC50
T1 construct: from tissue; host or cells: haemolysed erythrocytes of healthy human donors
T1 sequence (P22303 other isoform, or with tags, fused parts or gaps): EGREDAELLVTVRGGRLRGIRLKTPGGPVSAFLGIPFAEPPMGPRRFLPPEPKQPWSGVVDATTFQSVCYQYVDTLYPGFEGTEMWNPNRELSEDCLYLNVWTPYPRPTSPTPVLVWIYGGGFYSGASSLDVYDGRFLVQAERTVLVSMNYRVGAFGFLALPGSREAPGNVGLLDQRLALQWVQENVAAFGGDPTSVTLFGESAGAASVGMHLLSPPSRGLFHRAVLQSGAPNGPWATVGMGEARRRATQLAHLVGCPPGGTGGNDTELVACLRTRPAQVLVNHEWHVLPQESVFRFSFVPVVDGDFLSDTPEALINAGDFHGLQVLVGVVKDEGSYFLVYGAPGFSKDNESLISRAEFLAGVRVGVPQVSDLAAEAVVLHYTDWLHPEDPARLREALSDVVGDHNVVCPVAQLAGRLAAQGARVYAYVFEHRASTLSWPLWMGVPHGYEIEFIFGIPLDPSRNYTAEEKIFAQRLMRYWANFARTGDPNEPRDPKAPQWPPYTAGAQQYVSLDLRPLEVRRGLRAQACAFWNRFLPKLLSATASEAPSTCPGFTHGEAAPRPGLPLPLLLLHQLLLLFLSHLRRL
Procedure: (§1) The absorbance was recorded at λ = 436 nm using a CECIL 2021 spectrophotometer (CECIL Instruments Limited, Cambridge, UK) with a thermostatic water flow (temperature 37° C).
(§2) AChE Selectivity Index (SI) was calculated with the aid of the following formula: SI = IC50 of BChE/IC50 of AChE. In turn BuChE SI was defined as IC50 of AChE/IC50 of BChE. Linear regression (Hanes–Woolf plots) were used to estimate the maximal velocity (Vmax) and the Michaelis constant (Km).
(§3) To establish the type of inhibition, additional experiments were conducted with various concentrations of substrates (ATC, BTC), and the kinetic parameters of the enzymatic reactions were obtained using Hanes–Woolf equation, which is a graphical representation of enzyme kinetics in which the ratio of the initial substrate concentration [S] to the reaction velocity v is plotted against [S]. […]

[2] = molecular target: T1, human erythrocyte acetylcholinesterase (AChE); assay: biochemical; settings: for SI AChE: IC50 BChE/IC50 AChE; for IC50: human erythrocyte AChE, mean ± SD of three independent experiments
Procedure: (§4) Blood samples were obtained from healthy donors from the Voievodal Specialized Hospital in Łódź, Poland (Wojewódzki Specjalistyczny Szpital im. Dr W. Biegańskiego w Łodzi). The blood was collected into vacuum tubes containing sodium citrate. Erythrocytes were separated from plasma by centrifugation (3000 × g, 10 min, 20 °C) with a Micro 22 R centrifuge (Hettich ZENTRIFUGEN, Tuttlingen, Germany) and washed three times with 0.9% saline. Afterwards, red cells were haemolysed by freezing and stored at a temperature of –30 °C; before each experiment, they were restored at 37° C for 15 min and used to determine AChE activity. […] The studies on the biological material were approved by the Bioethics Committee of the Medical University of Lodz (RNN/27/18/KE).
(§5) The activity of both cholinesterases (AChE and BuChE) were conducted using a spectrophotometric method developed by Ellman with previously described modifications[25]^,[30]. […] 400-fold diluted solution of haemolysed erythrocytes or diluted plasma (200 times) was incubated for 15 min (37° C) with DTNB and tested compound at an appropriate concentration, and the reaction was started by addition of substrate (ATC or BTC). The final volume of a sample was 500 µL.
as §2

[3] = molecular target: T2, human plasma butyrylcholinesterase (BuChE) (Homo sapiens, UniProt P06276); assay: biochemical; settings: for IC50: human plasma BuChE, mean ± SD of three independent experiments; for SI BuChE: IC50(AChE)/IC50(BChE)
T2 construct: Plasma for determination of BuChE activity was obtained by centrifuging the blood; from tissue; host or cells: plasma of healthy human donors
T2 sequence (P06276 29-602): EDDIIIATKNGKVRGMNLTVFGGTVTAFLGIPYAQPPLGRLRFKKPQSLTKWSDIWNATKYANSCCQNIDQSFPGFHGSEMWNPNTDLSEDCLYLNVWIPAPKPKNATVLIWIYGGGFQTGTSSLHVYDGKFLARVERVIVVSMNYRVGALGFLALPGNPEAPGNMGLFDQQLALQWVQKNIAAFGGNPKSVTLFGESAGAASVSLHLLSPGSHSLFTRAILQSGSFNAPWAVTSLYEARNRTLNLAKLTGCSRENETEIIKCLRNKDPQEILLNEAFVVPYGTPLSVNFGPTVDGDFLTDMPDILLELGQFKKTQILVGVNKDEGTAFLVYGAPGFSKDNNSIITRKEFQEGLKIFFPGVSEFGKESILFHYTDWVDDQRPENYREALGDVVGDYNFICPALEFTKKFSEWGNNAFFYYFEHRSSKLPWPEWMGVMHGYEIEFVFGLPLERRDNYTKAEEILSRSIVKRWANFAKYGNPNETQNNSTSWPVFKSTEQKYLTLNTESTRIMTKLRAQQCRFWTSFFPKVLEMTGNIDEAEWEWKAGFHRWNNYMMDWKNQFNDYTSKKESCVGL
Procedure: as §4, §5, §2

[4] = molecular target: T2, human plasma butyrylcholinesterase (BuChE); assay: Kinetic parameters and type of BuChE inhibition (Hanes–Woolf); format: biochemical; settings: for Vmax(i) BuChE: mean ± SD; for vmax BuChE, individual experiments B1–B3: inhibitor at 1/3 of IC50; for vmax BuChE, individual experiments C1–C3: inhibitor at IC50
Procedure: as §1, §2, §3

[5] = molecular target: T3, BuChE (Homo sapiens, UniProt P06276); assay: BuChE inhibition with excess of substrate (BTC); format: biochemical; settings: BTC 2.5 mmol/L
T3 construct: Plasma for determination of BuChE activity was obtained by centrifuging the blood; from tissue; host or cells: plasma of healthy human donors
T3 sequence (P06276 29-602): as above

[6] = molecular target: T3, BuChE; settings: BTC 0.75 mmol/L; previously published; cited from earlier work
[7] = molecular target: T4, Aβ42 peptide (Homo sapiens, UniProt P05067); assay: Beta-amyloid (Aβ 1–42) aggregation, SensoLyte ThT kit; format: biochemical
T4 construct: Beta-amyloid (Aβ 1–42) aggregation studies were conducted using SensoLyte ThT Aβ42 Aggregation kit; purchased AnaSpec, Inc, Fremont, CA
T4 sequence (P05067 672-713): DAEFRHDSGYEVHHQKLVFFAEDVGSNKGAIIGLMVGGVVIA
Procedure: Beta-amyloid (Aβ 1–42) aggregation studies were conducted using SensoLyte ThT Aβ42 Aggregation kit (AnaSpec, Inc, Fremont, CA). Aβ42 peptide was dissolved in cold (4 °C) assay buffer and left to hydrate for a few minutes. The solution was spined at 10,000 rpm for 5 min at 4 °C to centrifuge out any precipitated material. […] The final volume of the test samples was 100 µL. Simultaneously, the positive control and negative control containing morin at the final concentration of 100 µmol/L were established. […] The measurements of fluorescence intensity expressed as relative fluorescence units (RFU) were taken for 90 min with 5 min intervals. The fluorescence intensity measured for positive control equals 100% of Aβ aggregation and was used for estimation of inhibition properties of tested biguanides.
Statistical analysis of data obtained in Aβ aggregation assay was conducted with a commercially available package (GraphPad Prism 5, La Jolla, CA). The results were expressed as the mean ± standard deviation (SD) of measurements conducted in triplicates or quadruplicates. One or two-way ANOVA and subsequent post hoc tests were used for intergroup comparisons. The results were considered significant at p values lower than 0.05.

[8] = molecular target: T5, AChE (Homo sapiens, UniProt P22303); format: biochemical
T5 construct: 400-fold diluted solution of haemolysed erythrocytes or diluted plasma (200 times) was incubated; from tissue; host or cells: haemolysed erythrocytes of healthy human donors
T5 sequence (P22303 other isoform, or with tags, fused parts or gaps): as the sequence (P22303 other isoform, or with tags, fused parts or gaps) above

[9] = molecular target: T1, human erythrocyte acetylcholinesterase (AChE); settings: previous study; cited from earlier work

| SMILES | type of AChE inhibition [1] | vmax AChE, mean ± SD ([1]; B: inhibitor at 1/3 of IC50) | Vmax(i) AChE ([1]; B: inhibitor at 1/3 of IC50) | vmax AChE, mean ± SD ([1]; C: inhibitor at IC50) | Vmax(i) AChE ([1]; C: inhibitor at IC50) | vmax AChE, individual experiments B1–B3 [1] | vmax AChE, individual experiments C1–C3 [1] | SI AChE [2] | IC50 [2] | IC50 [3] | I: type of inhibition, BuChE [4] | type of BuChE inhibition [4] | vmax BuChE, mean ± SD ([4]; B: inhibitor at 1/3 of IC50) | Vmax(i) BuChE ([4]; B: inhibitor at 1/3 of IC50) | vmax BuChE, mean ± SD ([4]; C: inhibitor at IC50) | Vmax(i) BuChE ([4]; C: inhibitor at IC50) | vmax BuChE, individual experiments B1–B3 [4] | vmax BuChE, individual experiments C1–C3 [4] | I: type of inhibition, AChE [1] | SI BuChE [3] | further results |
| --- | --- | --- | --- | --- | --- | --- | --- | --- | --- | --- | --- | --- | --- | --- | --- | --- | --- | --- | --- | --- | --- |
| CCCCCCSNC(N)=NC(=N)N(C)C [Compound 1] | non-competitive inhibition; also recorded: noncompetitively | 202.18 ± 7.39 mA/min | 0.202 ± 0.007 A/min | 161.59 ± 24.42 mA/min | 0.161 ± 0.024 A/min | 200.260 mA/min and 210.362 mA/min and 195.955 mA/min | 141.006 mA/min and 155.200 mA/min and 188.583 mA/min | 0.59 | 3170 ± 411 µM | 1880 ± 558 µM | M (M: mixed type) | mixed-type inhibition; also recorded: mixed manner | 206.94 ± 15.02 mA/min | 0.207 ± 0.015 A/min | 174.27 ± 11.70 mA/min | 0.174 ± 0.012 A/min | 195.000 mA/min and 223.809 mA/min and 202.024 mA/min | 161.000 mA/min and 178.705 mA/min and 183.120 mA/min | – | – | – |
| CN(C)C(=N)N=C(N)N [Metformin, metformin, reference compound] | – | – | – | – | – | – | – | – | – | – | – | – | – | – | – | – | – | – | – | – | effect on BuChE activity (words) [5]: did not reveal anti-BuChE activity; effect on BuChE activity (words) ([5]; listed as metformin): not to affect the enzyme activity; inhibition at 3000 µM ([5]; metformin at 3 mmol/L): 1.1 ± 0.51%; BuChE inhibition [6]: up to 21.2%; inhibition at 600 µM ([7]; 600 µmol/L, read-out: maximal inhibition of Aβ aggregation): 11.3%; effect on Aβ fibrillation vs positive control ([7]; both tested concentrations, 5–90 min): did not significantly affect; also recorded: not to significantly affect; type of AChE inhibition ([8]; at 1/2 IC50 for AChE): mixed-type; Vmax AChE ([8]; each at 1/2 IC50 for AChE: metformin 1175, donepezil 0.0125, compound 5 106.0 µmol/L, alone or in mixture): 0.179 ± 0.020 A/min; type of AChE inhibition [9]: mixed inhibition |
| CCCCC(CC)CSNC(N)=NC(=N)N(C)C (stereo not shown) [Compound 2] | mixed type | 218.43 ± 5.69 mA/min | 0.218 ± 0.005 A/min | 160.75 ± 10.82 mA/min | 0.160 ± 0.011 A/min | 225.000 mA/min and 215.564 mA/min and 214.749 mA/min | 153.011 mA/min and 156.143 mA/min and 173.124 mA/min | 0.09 | 3680 ± 693 µM | 335 ± 107 µM | M (M: mixed type) | mixed manner; also recorded: mixed-type | 182.27 ± 9.29 mA/min | 0.182 ± 0.009 A/min | 103.11 ± 19.12 mA/min | 0.103 ± 0.019 A/min | 192.871 mA/min and 178.466 mA/min and 175.485 mA/min | 115.727 mA/min and 81.110 mA/min and 112.514 mA/min | M (M: mixed type) | – | – |
| CN(C)C(=N)N=C(N)NS(=O)(=O)c1ccc([N+](=O)[O-])cc1 [Compound 3] | mixed inhibition; also recorded: mixed way | 147.43 ± 22.32 mA/min | 0.147 ± 0.022 A/min | 112.29 ± 24.418 mA/min | 0.112 ± 0.024 A/min | 173.106 mA/min and 136.619 mA/min and 132.580 mA/min | 136.281 mA/min and 87.466 mA/min and 113.130 mA/min | 0.15 | 3820 ± 278 µM | 561 ± 192 µM | M (M: mixed type) | mixed manner | 207.61 ± 5.30 mA/min | 0.208 ± 0.005 A/min | 180.05 ± 19.37 mA/min | 0.180 ± 0.019 A/min | 207.848 mA/min and 202.204 mA/min and 212.802 mA/min | 166.268 mA/min and 171.680 mA/min and 202.204 mA/min | M (M: mixed type) | 6.82 | – |
| CN(C)C(=N)N=C(N)NS(=O)(=O)c1ccccc1[N+](=O)[O-] [Compound 4] | mixed inhibition | 162.74 ± 5.00 mA/min | 0.163 ± 0.005 A/min | 118.77 ± 19.443 mA/min | 0.119 ± 0.019 A/min | 161.000 mA/min and 168.393 mA/min and 158.846 mA/min | 110.000 mA/min and 141.058 mA/min and 105.263 mA/min | 0.30 | 2860 ± 283 µM | 871 ± 227 µM | – | non-competitively | 229.87 ± 19.38 mA/min | 0.229 ± 0.019 A/min | 174.32 ± 5.91 mA/min | 0.174 ± 0.006 A/min | 229.000 mA/min and 249.675 mA/min and 210.944 mA/min | 174.000 mA/min and 180.395 mA/min and 168.586 mA/min | M (M: mixed type) | 3.28 | – |

Reference: publication PMC6161601 (Journal of Enzyme Inhibition and Medicinal Chemistry, 2018)
